Measured values as given in patent US20240270741A1 (Cogent Biosciences, Inc., priority 2023, published 2024).

Columns and labels:
FGFR2 V564F = FGFR2 V564F (Homo sapiens, UniProt P21802, V564F); test: FGFR mutant enzyme assay (HTRF KinEASE-TK), FGFR2 V564F; assay type: biochemical; details: Table 4
From the text: (§1) (Catalogue number 62TK0PEC).

FGFR2 = FGFR2 (Homo sapiens, UniProt P21802); test: FGFR wild type enzyme assay (HTRF KinEASE-TK), FGFR2
FGFR2 V564I = FGFR2 V564I (Homo sapiens, UniProt P21802, V564I); test: FGFR mutant enzyme assay (HTRF KinEASE-TK), FGFR2 V564I; assay type: biochemical; details: Table 4
From the text: as §1

FGFR2-WT = FGFR2-WT (Homo sapiens, UniProt P21802); test: Phosphorylated FGFR2-WT (pFGFR2-WT) cell assay, KATOIII cells; assay type: cell-based; details: Table 4
Procedure: Phosphorylated FGFR2-WT (pFGFR2-WT) Cell Assay:
KATOIII cells were grown in the appropriate growth medium, IMDM supplemented with 20% fetal bovine serum. Cells were seeded into a 384-well at 1×10^5 cells/25 μL/well. Cells were treated with compound using three-fold serial dilutions at final concentrations ranging from 10 μM to 0.5 nM. Compound was incubated on cells for 1 hour at 37° C., 5% CO2.
Following the 1-hour incubation with compounds, cell lysates were prepared and phospho FGFR2 was measured using the HTRF Phospho-FGFR2 (TYR653/654) Detection Kits (CisBio, cat #64FGFR2Y6PEG). 8 μL of cell lysis buffer (4×) supplied with 1× Phospho and Total protein blocking reagent (CisBio, cat #64FGFR2Y6PEG, CisBio, cat #64KB1AAC) was then added to the wells. Cells were incubated with lysis buffer for 40 minutes at 4° C. under shaking conditions. Plates were centrifuged at 1500 rpm for 3 min and then 16 μL of cell lysate was transferred from the cell-culture plate to a small volume detection plate with the added premixed antibody solutions (4 μL) (CisBio, cat #64FGFR2Y6PEG). Plates were centrifuged at 1000 rpm for 1 min then incubated at 25° ° C. for 120 min, then overnight at 4° C. Plates were read on the EnVision multimode plate reader via HTRF dual wavelength detection. One hundred percent of control (POC) was determined using DMSO treated samples, and 0 POC was determined using the top concentration of a control compound. A 4-parameter logistic curve was fit to the POC values as a function of compound concentration to determine the IC50 value.

FGFR2 N549H = FGFR2 N549H (Homo sapiens, UniProt P21802, N549H); test: FGFR mutant enzyme assay (HTRF KinEASE-TK), FGFR2 N549H; assay type: biochemical; details: Table 4
From the text: as §1

[1] = Enz FGFR2 (nM), FGFR2 wild type enzyme assay

Sequence of FGFR2 N549H (P21802 399-821 N549H limits assumed): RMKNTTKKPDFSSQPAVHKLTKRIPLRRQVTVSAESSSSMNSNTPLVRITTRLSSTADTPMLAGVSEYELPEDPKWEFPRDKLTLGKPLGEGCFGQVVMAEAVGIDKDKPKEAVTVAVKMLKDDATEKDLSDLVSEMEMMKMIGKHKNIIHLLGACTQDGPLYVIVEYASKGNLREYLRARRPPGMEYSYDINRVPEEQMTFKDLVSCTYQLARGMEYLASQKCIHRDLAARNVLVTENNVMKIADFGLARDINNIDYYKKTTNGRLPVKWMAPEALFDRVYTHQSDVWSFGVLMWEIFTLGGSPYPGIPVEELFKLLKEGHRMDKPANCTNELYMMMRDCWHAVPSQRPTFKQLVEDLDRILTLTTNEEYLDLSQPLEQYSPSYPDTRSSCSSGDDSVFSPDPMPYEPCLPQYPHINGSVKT
Sequence of FGFR2 (P21802 399-821 limits assumed): as the sequence (P21802 399-821 N549H limits assumed) above, with H151N counted along it
Sequence of FGFR2 V564F (P21802 399-821 V564F limits assumed): as the sequence (P21802 399-821 N549H limits assumed) above, with H151N, V166F counted along it
Sequence of FGFR2 V564I (P21802 399-821 V564I limits assumed): as the sequence (P21802 399-821 N549H limits assumed) above, with H151N, V166I counted along it
Sequence of FGFR2-WT (P21802 22-821): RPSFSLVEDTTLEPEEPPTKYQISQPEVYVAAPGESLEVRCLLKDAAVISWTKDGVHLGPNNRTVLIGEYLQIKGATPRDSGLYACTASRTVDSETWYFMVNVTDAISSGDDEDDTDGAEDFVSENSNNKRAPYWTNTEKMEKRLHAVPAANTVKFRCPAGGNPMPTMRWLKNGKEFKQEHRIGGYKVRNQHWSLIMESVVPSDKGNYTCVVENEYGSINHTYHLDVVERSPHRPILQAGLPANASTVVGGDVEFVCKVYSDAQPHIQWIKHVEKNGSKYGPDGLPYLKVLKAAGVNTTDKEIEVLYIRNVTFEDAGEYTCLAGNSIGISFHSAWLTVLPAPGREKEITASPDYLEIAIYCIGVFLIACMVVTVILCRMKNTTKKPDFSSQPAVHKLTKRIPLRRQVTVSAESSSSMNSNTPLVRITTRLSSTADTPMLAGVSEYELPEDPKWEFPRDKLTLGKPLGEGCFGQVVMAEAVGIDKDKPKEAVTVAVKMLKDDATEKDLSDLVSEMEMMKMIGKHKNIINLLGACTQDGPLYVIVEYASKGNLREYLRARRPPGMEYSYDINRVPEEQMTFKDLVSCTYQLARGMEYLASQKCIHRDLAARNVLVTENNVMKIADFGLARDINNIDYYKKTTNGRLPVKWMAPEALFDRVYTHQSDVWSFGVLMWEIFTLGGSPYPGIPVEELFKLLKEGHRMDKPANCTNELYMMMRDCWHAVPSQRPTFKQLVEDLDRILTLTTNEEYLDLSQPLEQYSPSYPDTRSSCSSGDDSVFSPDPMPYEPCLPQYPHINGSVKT

Compound | IC50 (FGFR2 V564F) [nM] | IC50 (FGFR2; FGFR2 Enz, Table 4) [nM] | IC50 (FGFR2 V564I) [nM] | IC50 (FGFR2-WT) [nM] | IC50 (FGFR2 N549H) [nM] | IC50 (FGFR2; Enz FGFR2 (nM)) [nM] | IC50 (FGFR2; [1]) [nM]
N#Cc1cnn2cc(-c3cnn([C@H]4CCCNC4)c3)cc(Sc3ccccn3)c12 [Example 1, 6-[1-[(3S)-3-Piperidyl]pyrazol-4-yl]-4-(2-pyridylsulfanyl) pyrazolo[1,5-a]pyridine-3-carbonitrile] | 3 | 3 | 6 | 25 | 1.5 |  | 
Cc1c(-c2cc(Sc3cccc(F)c3C#N)c3c(C#N)cnn3c2)cnn1C1CCNCC1 [Example 130, 4-(2-cyano-3-fluoro-phenyl)sulfanyl-6-[5-methyl-1-(4-piperidyl)pyrazol-4-yl]pyrazolo[1,5-a]pyridine-3-carbonitrile] | 4 | 1 | 5 | 117 | 3 | 2 | 
C[C@@H](O)CN1CC[C@H](n2cc(-c3cc(Sc4ccccc4C#N)c4c(C#N)cnn4c3)cn2)C1 [Example 678, 4-((2-cyanophenyl)thio)-6-(1-((S)-1-((R)-2-hydroxypropyl)pyrrolidin-3-yl)-1H-pyrazol-4-yl)pyrazolo[1,5-a]pyridine-3-carbonitrile] |  |  |  |  |  |  | 0.4

Results, then the molecule that gave them:

IC50 (FGFR2 V564F) [nM] | IC50 (FGFR2; FGFR2 Enz, Table 4) [nM] | IC50 (FGFR2 V564I) [nM] | IC50 (FGFR2-WT) [nM] | IC50 (FGFR2 N549H) [nM] | IC50 (FGFR2; Enz FGFR2 (nM)) [nM] | IC50 (FGFR2; [1]) [nM] | Compound
0.5 | 0.3 | 1 | 28 | 0.2 | 0.3 |  | CN[C@H]1CC[C@@H](n2ncc(-c3cc(Sc4ccccc4C#N)c4c(C#N)cnn4c3)c2C)CC1 [Example 117, -[(5-fluoro-2-methyl-4-pyridyl)sulfany1]-6-[5-methyl-1-(4-piperidyl)pyrazol-4-yl]pyrazolo[1,5-a]pyridine-3-carbonitrile]
9 | 0.12 | 12 | 41 | 4 | 5 |  | Cc1nc(Sc2cc(-c3cnn(C4CCN(C)CC4)c3C)cn3ncc(C#N)c23)ccc1F [Example 128]
 |  |  |  |  |  | 0.3 | C[C@H](O)CN1CC[C@H](n2cc(-c3cc(Sc4ccccc4C#N)c4c(C#N)cnn4c3)cn2)C1 [Example 677, 4-((2-cyanophenyl)thio)-6-(1-((S)-1-((S)-2-hydroxypropyl)pyrrolidin-3-yl)-1H-pyrazol-4-y)pyrazolo[1,5-a]pyridine-3-carbonitrile]
 |  |  |  |  |  | 1.6 | Cc1c(-c2cc(Sc3ccc(F)cc3C#N)c3c(C#N)cnn3c2)cnn1[C@H]1CC[C@H](OP(=O)(O)O)CC1 [Example 679, sodium (1r,4r)-4-(4-(3-cyano-4-((2-cyano-4-fluorophenyl)thio)pyrazolo [1,5-a]pyridin-6-yl)-5-methyl-1H-pyrazol-1-yl)cyclohexyl phosphate]
 |  |  |  |  |  | 1 | Cc1c(-c2cc(Sc3ccc(F)cc3C#N)c3c(C#N)cnn3c2)cnn1[C@H]1CC[C@H](OC(=O)[C@@H](N)C(C)C)CC1 [Example 680, (1r,4S)-4-(4-(3-cyano-4-((2-cyano-4-fluorophenyl)thio)pyrazolo [1,5-a]pyridin-6-yl)-5-methyl-1H-pyrazol-1-yl)cyclohexyl L-valinate]
